Test results taken from ChEMBL document CHEMBL3608225, “Harpagoside Inhibits RANKL-Induced Osteoclastogenesis via Syk-Btk-PLCγ2-Ca(2+) Signaling Pathway and Prevents Inflammation-Mediated Bone Loss” (J Nat Prod, 2015).
Calls of active or inactive are those of the source. The rule behind the calls is not given here.

Columns and labels:
[1] = biological target: Tyrosine-protein kinase BTK (Mus musculus) (UniProt P35991); assay: Inhibition of RANKL-mediated Btk phosphorylation in mouse BMMC at 100 uM after 1 hr by Western blot analysis
Tyrosine-protein kinase BTK (Mus musculus), sequence (P35991 whole entry): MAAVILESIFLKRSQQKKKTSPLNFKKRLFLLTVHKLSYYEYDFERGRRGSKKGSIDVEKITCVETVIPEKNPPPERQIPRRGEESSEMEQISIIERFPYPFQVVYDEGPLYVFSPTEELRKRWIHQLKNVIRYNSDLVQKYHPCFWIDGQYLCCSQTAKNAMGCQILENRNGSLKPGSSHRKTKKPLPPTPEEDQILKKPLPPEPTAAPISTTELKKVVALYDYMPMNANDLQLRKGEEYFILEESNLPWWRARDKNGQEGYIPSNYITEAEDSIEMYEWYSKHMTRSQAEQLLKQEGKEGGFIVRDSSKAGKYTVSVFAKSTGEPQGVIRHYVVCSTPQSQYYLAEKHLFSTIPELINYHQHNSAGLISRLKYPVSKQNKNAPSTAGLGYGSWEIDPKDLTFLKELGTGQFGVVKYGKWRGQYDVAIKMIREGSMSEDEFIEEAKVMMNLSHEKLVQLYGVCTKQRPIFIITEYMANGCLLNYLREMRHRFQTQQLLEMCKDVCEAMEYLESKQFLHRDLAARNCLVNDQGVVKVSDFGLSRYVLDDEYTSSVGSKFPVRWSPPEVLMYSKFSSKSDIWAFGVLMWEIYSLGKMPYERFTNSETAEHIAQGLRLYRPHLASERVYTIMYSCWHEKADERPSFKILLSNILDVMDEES

[2] = biological target: T1, Tumor necrosis factor ligand superfamily member 11 (Mus musculus) (UniProt O35235); assay: Inhibition of RANKL-mediated osteoclastogenesis in mouse BMMC assessed as reduction of NFATc1 protein expression at 100 uM after 12 to 48 hrs by Western blot analysis; type: functional
T1 sequence (whole entry): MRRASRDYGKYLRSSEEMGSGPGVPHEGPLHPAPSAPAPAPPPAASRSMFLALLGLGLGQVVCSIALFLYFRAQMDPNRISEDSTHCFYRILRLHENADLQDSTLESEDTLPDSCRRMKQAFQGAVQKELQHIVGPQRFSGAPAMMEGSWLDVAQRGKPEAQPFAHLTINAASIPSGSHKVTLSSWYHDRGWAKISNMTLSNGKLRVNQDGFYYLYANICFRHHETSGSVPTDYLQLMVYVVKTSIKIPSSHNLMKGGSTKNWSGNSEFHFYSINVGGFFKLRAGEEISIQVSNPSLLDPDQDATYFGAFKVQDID

Mus musculus [3] = assay: Inhibition of LPS-induced bone loss in ICR mouse assessed as restoration of Tb.Sp in femurs at 10 mg/kg, po after 10 days by morphometric analysis; type: functional, organism-based
[4] = biological target: T1, Tumor necrosis factor ligand superfamily member 11 (Mus musculus); assay: Inhibition of RANKL-mediated osteoclastogenesis in mouse BMMC assessed as reduction of c-Fos mRNA expression at 100 uM after 12 to 48 hrs by RT-PCR analysis; type: functional
[5] = biological target: T1, Tumor necrosis factor ligand superfamily member 11 (Mus musculus); assay: Inhibition of RANKL-mediated osteoclastogenesis in mouse BMMC assessed as reduction of DC-STAMP mRNA expression at 100 uM after 12 to 48 hrs by RT-PCR analysis; type: functional
Mus musculus [6] = assay: Inhibition of ovariectomized-induced bone loss in C57BL/6 mouse assessed as restoration number of osteoclasts in femurs at 10 mg/kg, po administered every other day for 28 days; type: functional, organism-based
Mus musculus [7] = assay: Inhibition of ovariectomized-induced bone loss in C57BL/6 mouse assessed as restoration of bone loss in femurs at 10 mg/kg, po administered every other day for 28 days by hematoxylin and eosin staining; type: functional, organism-based
[8] = biological target: T1, Tumor necrosis factor ligand superfamily member 11 (Mus musculus); assay: Inhibition of RANKL-mediated JNK phosphorylation in mouse BMMC at 100 uM after 1 hr by Western blot analysis
[9] = biological target: T1, Tumor necrosis factor ligand superfamily member 11 (Mus musculus); assay: Inhibition of RANKL-mediated osteoclastogenesis in mouse BMMC assessed as reduction of OSCAR mRNA expression at 100 uM after 12 to 48 hrs by RT-PCR analysis; type: functional
[10] = Cytotoxicity against mouse BMMC assessed as cell viability after 3 days by XTT assay; conditions: 72 h
[11] = biological target: Tyrosine-protein kinase SYK (Mus musculus) (UniProt P48025); assay: Inhibition of RANKL-mediated Syk phosphorylation in mouse BMMC at 100 uM after 1 hr by Western blot analysis
Tyrosine-protein kinase SYK (Mus musculus), sequence (P48025 whole entry, looked up): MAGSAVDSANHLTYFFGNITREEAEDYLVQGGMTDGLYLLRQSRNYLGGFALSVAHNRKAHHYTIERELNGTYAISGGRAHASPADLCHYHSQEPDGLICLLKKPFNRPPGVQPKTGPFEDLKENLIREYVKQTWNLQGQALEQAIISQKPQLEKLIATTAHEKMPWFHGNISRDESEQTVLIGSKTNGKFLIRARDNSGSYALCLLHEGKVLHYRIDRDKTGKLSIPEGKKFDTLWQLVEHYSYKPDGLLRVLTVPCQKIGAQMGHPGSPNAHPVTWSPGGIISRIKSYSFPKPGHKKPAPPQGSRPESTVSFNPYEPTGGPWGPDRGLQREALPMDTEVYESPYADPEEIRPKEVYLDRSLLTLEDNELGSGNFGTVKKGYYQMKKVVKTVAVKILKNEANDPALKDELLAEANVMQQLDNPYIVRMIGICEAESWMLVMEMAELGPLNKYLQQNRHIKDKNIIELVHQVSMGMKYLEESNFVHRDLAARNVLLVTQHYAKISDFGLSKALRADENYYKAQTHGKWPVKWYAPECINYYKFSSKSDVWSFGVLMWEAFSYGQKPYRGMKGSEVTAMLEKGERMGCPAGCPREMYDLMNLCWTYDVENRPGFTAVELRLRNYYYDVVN

[12] = biological target: T1, Tumor necrosis factor ligand superfamily member 11 (Mus musculus); assay: Inhibition of RANKL-mediated osteoclastogenesis in mouse BMMC assessed as reduction of c-Fos protein expression at 100 uM after 12 to 48 hrs by Western blot analysis; type: functional
[13] = biological target: T1, Tumor necrosis factor ligand superfamily member 11 (Mus musculus); assay: Inhibition of RANKL-mediated osteoclastogenesis in mouse BMMC assessed as reduction of CTR mRNA expression at 100 uM after 12 to 48 hrs by RT-PCR analysis; type: functional
Mus musculus [14] = assay: Inhibition of ovariectomized-induced bone loss in C57BL/6 mouse assessed as reduction of loss of bone mineral density at 10 mg/kg, po administered every other day for 28 days by micro-CT analysis; type: functional, organism-based
[15] = biological target: T2, 1-phosphatidylinositol 4,5-bisphosphate phosphodiesterase gamma-2 (Mus musculus) (UniProt Q8CIH5); assay: Inhibition of RANKL-mediated PLCgamma2 phosphorylation in mouse BMMC at 100 uM after 1 hr by Western blot analysis
T2 sequence (whole entry): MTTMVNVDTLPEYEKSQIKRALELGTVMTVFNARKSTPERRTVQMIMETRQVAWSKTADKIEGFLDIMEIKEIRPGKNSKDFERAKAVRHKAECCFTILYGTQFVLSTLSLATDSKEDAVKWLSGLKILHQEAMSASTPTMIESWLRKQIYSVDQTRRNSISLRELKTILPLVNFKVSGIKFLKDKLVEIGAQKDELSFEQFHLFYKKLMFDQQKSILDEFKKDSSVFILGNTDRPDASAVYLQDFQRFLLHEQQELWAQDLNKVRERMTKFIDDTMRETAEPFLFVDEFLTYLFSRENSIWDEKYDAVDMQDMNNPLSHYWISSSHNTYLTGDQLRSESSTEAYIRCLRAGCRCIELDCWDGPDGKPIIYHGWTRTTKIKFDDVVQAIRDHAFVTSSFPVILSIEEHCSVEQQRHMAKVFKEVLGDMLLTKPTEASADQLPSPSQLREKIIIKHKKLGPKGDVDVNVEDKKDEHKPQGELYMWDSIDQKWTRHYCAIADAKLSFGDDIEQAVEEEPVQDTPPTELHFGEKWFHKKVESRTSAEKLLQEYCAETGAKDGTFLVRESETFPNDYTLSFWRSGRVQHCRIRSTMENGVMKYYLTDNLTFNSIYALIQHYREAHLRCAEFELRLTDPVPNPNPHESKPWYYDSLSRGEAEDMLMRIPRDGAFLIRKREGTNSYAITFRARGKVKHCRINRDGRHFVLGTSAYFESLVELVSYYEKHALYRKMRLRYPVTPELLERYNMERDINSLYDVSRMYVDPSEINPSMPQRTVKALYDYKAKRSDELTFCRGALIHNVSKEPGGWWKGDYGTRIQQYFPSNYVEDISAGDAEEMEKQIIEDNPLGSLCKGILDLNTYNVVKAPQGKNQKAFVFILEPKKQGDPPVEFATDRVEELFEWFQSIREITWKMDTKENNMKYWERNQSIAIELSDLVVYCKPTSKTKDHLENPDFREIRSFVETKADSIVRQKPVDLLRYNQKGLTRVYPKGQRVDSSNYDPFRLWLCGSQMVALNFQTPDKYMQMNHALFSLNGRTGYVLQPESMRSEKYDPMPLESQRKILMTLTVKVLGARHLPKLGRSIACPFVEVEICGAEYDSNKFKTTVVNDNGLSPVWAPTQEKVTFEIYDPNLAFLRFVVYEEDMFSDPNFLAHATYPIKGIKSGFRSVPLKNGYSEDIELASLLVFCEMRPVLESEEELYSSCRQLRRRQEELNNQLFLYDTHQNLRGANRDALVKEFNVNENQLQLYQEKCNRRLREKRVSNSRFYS

[16] = biological target: T1, Tumor necrosis factor ligand superfamily member 11 (Mus musculus); assay: Inhibition of RANKL-mediated osteoclastogenesis in mouse BMMC assessed as reduction of TRAP mRNA expression at 100 uM after 12 to 48 hrs by RT-PCR analysis; type: functional
[17] = biological target: T1, Tumor necrosis factor ligand superfamily member 11 (Mus musculus); assay: Inhibition of RANKL-mediated osteoclastogenesis in mouse BMMC assessed as reduction of amplitude and frequency of Ca2+ oscillations at 100 uM after 24 hrs by Fura-2/AM fluorescence assay; type: functional
Mus musculus [18] = assay: Inhibition of ovariectomized-induced bone loss in C57BL/6 mouse assessed as restoration of Tb.N in femurs at 10 mg/kg, po administered every other day for 28 days by morphometric analysis; type: functional, organism-based
Mus musculus [19] = assay: Inhibition of LPS-induced bone loss in ICR mouse assessed as reduction of CTX-I in serum at 10 mg/kg, po after 10 days by ELISA; type: functional, organism-based
Mus musculus [20] = assay: Inhibition of LPS-induced bone loss in ICR mouse assessed as prevention of loss in trabecular bone in femurs at 10 mg/kg, po after 10 days by micro-CT analysis; type: functional, organism-based; conditions: Trabecula
[21] = biological target: T1, Tumor necrosis factor ligand superfamily member 11 (Mus musculus); assay: Inhibition of RANKL-mediated osteoclast differentiation in mouse BMMC assessed as formation of TRAP-positive osteoclasts after 4 days; type: functional
[22] = biological target: T1, Tumor necrosis factor ligand superfamily member 11 (Mus musculus); assay: Inhibition of RANKL-mediated ERK phosphorylation in mouse BMMC at 100 uM after 1 hr by Western blot analysis
[23] = biological target: T1, Tumor necrosis factor ligand superfamily member 11 (Mus musculus); assay: Inhibition of RANKL-mediated osteoclastogenesis in mouse BMMC assessed as reduction of cathepsin K mRNA expression at 100 uM after 12 to 48 hrs by RT-PCR analysis; type: functional
Mus musculus [24] = assay: Inhibition of LPS-induced bone loss in ICR mouse assessed as reduction of RANKL/OPG ratio in serum level at 10 mg/kg, po after 10 days by ELISA; type: functional, organism-based
Mus musculus [25] = assay: Inhibition of ovariectomized-induced bone loss in C57BL/6 mouse assessed as restoration of osteoclast formation in femurs at 10 mg/kg, po administered every other day for 28 days by hematoxylin and eosin staining; type: functional, organism-based
Mus musculus [26] = assay: Inhibition of ovariectomized-induced bone loss in C57BL/6 mouse assessed as CTX-I level in serum at 10 mg/kg, po administered every other day for 28 days by ELISA; type: functional, organism-based
Mus musculus [27] = assay: Inhibition of ovariectomized-induced bone loss in C57BL/6 mouse assessed as restoration of Tb.Sp in femurs at 10 mg/kg, po administered every other day for 28 days by morphometric analysis; type: functional, organism-based
Mus musculus [28] = assay: Inhibition of LPS-induced bone loss in ICR mouse assessed as restoration of number of osteoclasts in femurs at 10 mg/kg, po after 10 days; type: functional, organism-based
[29] = biological target: T1, Tumor necrosis factor ligand superfamily member 11 (Mus musculus); assay: Inhibition of RANKL-mediated osteoclastogenesis in mouse BMMC assessed as reduction of beta3-integrin mRNA expression at 100 uM after 12 to 48 hrs by RT-PCR analysis; type: functional
Mus musculus [30] = assay: Inhibition of LPS-induced bone loss in ICR mouse assessed as restoration of Tb.N in femurs at 10 mg/kg, po after 10 days by morphometric analysis; type: functional, organism-based
Mus musculus [31] = assay: Inhibition of LPS-induced bone loss in ICR mouse assessed as restoration of BV/TV in femurs at 10 mg/kg, po after 10 days by morphometric analysis; type: functional, organism-based
Mus musculus [32] = assay: Inhibition of LPS-induced bone loss in ICR mouse assessed as restoration of Tb.Th in femurs at 10 mg/kg, po after 10 days by morphometric analysis; type: functional, organism-based
Mus musculus [33] = assay: Inhibition of LPS-induced bone loss in ICR mouse assessed as restoration of bone loss in femurs at 10 mg/kg, po after 10 days by hematoxylin and eosin staining; type: functional, organism-based
Mus musculus [34] = assay: Inhibition of ovariectomized-induced bone loss in C57BL/6 mouse assessed as restoration of BV/TV in femurs at 10 mg/kg, po administered every other day for 28 days by morphometric analysis; type: functional, organism-based
[35] = biological target: T1, Tumor necrosis factor ligand superfamily member 11 (Mus musculus); assay: Inhibition of RANKL-mediated osteoclast differentiation in mouse BMMC assessed as disruption of F-actin ring formation after 3 days using phalloidin and DAPI staining; type: functional
Mus musculus [36] = assay: Inhibition of LPS-induced bone loss in ICR mouse assessed as restoration of osteoclast formation in femurs at 10 mg/kg, po after 10 days by hematoxylin and eosin staining; type: functional, organism-based
[37] = biological target: T1, Tumor necrosis factor ligand superfamily member 11 (Mus musculus); assay: Inhibition of RANKL-mediated osteoclastogenesis in mouse BMMC assessed as reduction of NFATc1 mRNA expression at 100 uM after 12 to 48 hrs by RT-PCR analysis; type: functional
Osteoclast = assay: Inhibition of bone resorption in mouse mature osteoclasts after 24 hrs by light microscopic analysis; type: functional, cell-based

C[C@]1(OC(=O)/C=C/c2ccccc2)C[C@@H](O)[C@]2(O)C=CO[C@@H](O[C@@H]3O[C@H](CO)[C@@H](O)[C@H](O)[C@H]3O)[C@@H]21 [HARPAGOSIDE]
inhibition [1]: Active | inhibition [2]: Active | inhibition (Mus musculus [3]): Active | inhibition [4]: Active | inhibition [5]: Active | inhibition (Mus musculus [6]): inactive | inhibition (Mus musculus [7]): inactive | inhibition [8]: Active | inhibition [9]: Active | Activity [10]: Non-toxic | inhibition [11]: Active | inhibition [12]: Active | inhibition [13]: Active | inhibition (Mus musculus [14]): inactive | inhibition [15]: Active | inhibition [16]: Active | inhibition [17]: Active | inhibition (Mus musculus [18]): inactive | inhibition (Mus musculus [19]): Active | inhibition (Mus musculus [20]): Active | inhibition [21]: Dose-dependent effect | inhibition [22]: Active | inhibition [23]: Active | inhibition (Mus musculus [24]): Active | inhibition (Mus musculus [25]): inactive | inhibition (Mus musculus [26]): inactive | inhibition (Mus musculus [27]): inactive | inhibition (Mus musculus [28]): Active | inhibition [29]: Active | inhibition (Mus musculus [30]): Active | inhibition (Mus musculus [31]): Active | inhibition (Mus musculus [32]): inactive | inhibition (Mus musculus [33]): Active | inhibition (Mus musculus [34]): inactive | inhibition [35]: Dose-dependent effect | inhibition (Mus musculus [36]): Active | inhibition [37]: Active | inhibition (Osteoclast): Dose-dependent effect
